Experimental data as given in paper PMC3235552, “Fragment library screening reveals remarkable similarities between the G protein-coupled receptor histamine H4 and the ion channel serotonin 5-HT3A” (Bioorganic & Medicinal Chemistry Letters, 2011).
Marks after values point to notes of the source that are not given here.

Columns and labels:
human H4R [1] = biological target: T1, human H4R (Homo sapiens, UniProt Q9H3N8); test: H4R radioligand displacement of [3H]histamine, HEK293 membranes; type: binding; set-up: expressed in transfected cells; host or cells: HEK293T (main text: HEK293), transient transfection with polyethyleneimine; conditions: for Affinity (pKi) H4R: displacement of [3H]histamine, membranes of HEK293 cells transiently expressing human H4R, mean ± SEM, at least three measurements, n.a. = non active
Protocol: For the H4R fragment screen a radioligand displacement study was performed at a 10 μM fragment concentration. Hits were assigned when the fragment displaced 50% or more of the radioligand, resulting in 56 hits (hit rate: 6%). Radioligand binding was measured by displacement of [^3H]histamine using membranes of HEK293 cells transiently expressing the human H4R.[17] For the hit compounds, affinities were determined by subsequent radioligand displacement studies.
The H4R radioligand displacement screen was performed on homogenized HEK293T cells transiently expressing the human H4R. To this end, cells were transfected with 1.25 µg H4R plasmid per million cells using the 25-kDa linear polyethyleneimine. Two days after transfection, cells were collected, washed in PBS, and stored as pellets at -20 °C. Pellets were dissolved in binding buffer and homogenized using a teflon/glass followed by sonification for 3s. Cell homogenates were incubated in 96 well plates with 10µM (final) fragment and 10nM [^3H]-histamine (13.4 Ci/mmol, Perkin Elmer) and for 1.5 hours at room temperature on a table shaker (750rpm). Incubations were terminated by rapid filtration through polyethyleneimene-coated GF/C (Perkin Elmer) filter plates. Bound radioactivity was quantified in a Wallac microbeta counter (Perkin Elmer).

human 5-HT3AR = biological target: T2, human 5-HT3AR (Homo sapiens, UniProt P46098); test: 5-HT3AR radioligand displacement of [3H]granisetron, HEK293 membranes; type: binding; conditions: for Affinity (pKi) 5-HT3AR: displacement of [3H]granisetron, membranes of HEK293 cells expressing human 5-HT3AR, mean ± SEM, at least two measurements, n.a. = non active
T2 construct: transfected with the human 5-HT3A subunit (PDB ID: P46098) in pcDNA3.1; expressed in transfected cells; cDNA in pcDNA3.1
T2 sequence (P46098 24-478): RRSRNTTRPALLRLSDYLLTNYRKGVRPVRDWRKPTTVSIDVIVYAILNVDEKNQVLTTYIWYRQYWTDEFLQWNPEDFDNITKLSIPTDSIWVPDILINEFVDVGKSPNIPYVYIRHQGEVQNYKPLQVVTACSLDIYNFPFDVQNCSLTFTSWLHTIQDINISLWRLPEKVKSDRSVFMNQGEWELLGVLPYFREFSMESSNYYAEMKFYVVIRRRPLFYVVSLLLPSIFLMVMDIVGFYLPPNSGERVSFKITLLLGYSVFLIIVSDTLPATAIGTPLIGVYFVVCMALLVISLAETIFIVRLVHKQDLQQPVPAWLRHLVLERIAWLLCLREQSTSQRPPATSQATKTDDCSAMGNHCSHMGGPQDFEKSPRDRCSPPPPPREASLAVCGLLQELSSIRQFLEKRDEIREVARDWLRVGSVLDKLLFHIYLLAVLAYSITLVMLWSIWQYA
Protocol: For the 5-HT3AR we performed a high throughput functional fragment screen[18] using a fluorescent readout (Flex Station) applying a fluorescent membrane potential dye. […] From this fragment screening we identified 70 hits for the 5-HT3A receptor (hit rate: 7%). Fragments were screened at a concentration of 100 μM using stably expressed human 5-HT3AR in HEK293 cells. Binding affinities of hits were determined using radioligand binding studies measuring [^3H]granisetron binding using membranes of HEK293 cells expressing the human 5-HT3AR.[18]
5-HT3AR were expressed in HEK293 cells transfected with the human 5-HT3A subunit ([…]: P46098) in pcDNA3.1 (Invitrogen Ltd., Paisley, UK). Stably expressing cells were clonally selected with the addition of the G-418 (Sigma Aldrich Company ltd., Dorset, UK). Cells were routinely grown in 90 mm culture dishes containing Dubelco’s Modified Eagle’s Medium DMEM / Glutamax (Gibco, Invitrogen Ltd.) and passaged when 90% confluency was reached.
[picture] For radioligand binding HEK293 cells at 90% confluency were scraped into 1 ml of ice-cold HEPES buffer (10 mM, pH 7.4) and frozen. After thawing, they were washed with HEPES buffer and homogenised using a fine-bore syringe. 50 µl of cell membranes were incubated in 0.5 ml HEPES buffer containing 0.7 nM [^3H]granisetron (~ Kd) and differing concentrations of the test compound. Competition binding (8 point) was performed on at least three separate plates of transfected cells. Non-specific binding was determined using 1 mM quipazine. Reactions were incubated for at least 24 h at 4°C, to allow compounds with slow kinetics to equilibrate. Incubations were terminated by vacuum filtration using a Brandel cell harvester (Alpha Biotech Ltd., London, UK) onto GF/B filters pre-soaked in 0.3 % polyethyleneimine. Radioactivity was determined by scintillation counting using a Beckman BCLS6500 (Fullerton, California, USA). Data were fit according to the equation:
where L is the concentration of ligand present; BL is the binding in the presence of ligand concentration L; Bmin is the binding when L = 0; Bmax is the binding when L=∞, L50 is the concentration of L which gives a binding equal to (Bmax + Bmin)/2; and nH is the Hill coefficient. Ki values were estimated from IC50 values using the Cheng-Prusoff equation^5
where Ki is the equilibrium dissociation constant for binding of the unlabeled antagonist, IC50 is the concentration of antagonist that blocks half the specific binding, [L] is the free concentration of radioligand and Kd is the equilibrium dissociation constant of the radioligand.

human H4R [2] = biological target: T1, human H4R; test: H4R radioligand binding, membranes of SK-N-MC cells; set-up: expressed in transfected cells; conditions: membranes of SK-N-MC cells transiently expressing human H4R; mean ± SEM, at least three measurements
H4R = biological target: H4R; set-up: method as in PMID 18983139, PMID 19413570; conditions: Abbott H4R ligands; cited from earlier work

| SMILES | Affinity (pKi) 5-HT3AR (human 5-HT3AR) | Affinity (pKi) H4R (human H4R [1]) | further results |
| --- | --- | --- | --- |
| c1cncc(Cc2c[nH]cn2)c1 [compound 1] | – | 7.0 ± 0.1 | – |
| c1ccc(CNCCc2c[nH]cn2)cc1 [compound 2] | – | 6.2 ± 0.1 | – |
| CN1CCN(c2cc(-c3ccccc3)ncn2)CC1 [compound 3] | – | 6.7 ± 0.0 | – |
| Clc1ccc(C2CCNC2)cc1 (stereo not shown) [compound 4] | 6.1 ± 0.2 | – | – |
| CN1CCN(c2ccc3cc(Cl)ccc3n2)CC1 [compound 7] | 6.6 ± 0.3 | 6.2 ± 0.0 | affinities for 5-HT3R and H4R compared (human 5-HT3AR; from affinities of Table 1): comparable affinities |
| CN1CCN(c2nc3ccccc3nc2O)CC1 [compound 8] | 7.9 ± 0.3 | 7.2 ± 0.0 | affinities for 5-HT3R and H4R compared (human 5-HT3AR; from affinities of Table 1): comparable affinities |
| Nc1nc2c(c(N3CCNCC3)n1)CCCc1ccccc1-2 [compound 13] | – | – | H4R pKi (H4R): 7.1 |

More lines, main results first:

| Affinity (pKi) 5-HT3AR (human 5-HT3AR) | SMILES | Affinity (pKi) H4R (human H4R [1]) | further results |
| --- | --- | --- | --- |
| 6.0 ± 0.0 | Nc1ccc2cc3ccccc3nc2c1 [compound 5] | – | – |
| 6.1 ± 0.1 | N=C(N)NCCCc1ccccc1 [compound 6] | – | – |
| 8.8 ± 0.1 | CN1CCC(=Cc2nc3cc(Cl)ccc3[nH]2)CC1 [compound 9] | – | selectivity for 5-HT3R over H4R (human 5-HT3AR; from affinities of Table 1): 500 fold; Affinity (pKi) H4R (human H4R [2]): 6.1 ± 0.1 ^b |
| 5.9 ± 0.1 | CN1CCN(c2cc(-c3ccccc3)nc(N)n2)CC1 [compound 10] | 8.2 ± 0.1 | selectivity for H4R over 5-HT3R (human H4R [1]; from affinities of Table 1): 200 fold |
| 5.9 ± 0.3 | c1nc(CC2CCCCC2)c[nH]1 [compound 11] | – | affinities for 5-HT3R and H4R compared (human 5-HT3AR; from affinities of Table 1): comparable affinities; Affinity (pKi) H4R (human H4R [2]): 6.2 ± 0.1 ^b |
